Experiments:
Plasma [1] = assay: Anticoagulant activity in human plasma assessed as activated partial thromboplastin time; assay type: functional
Coagulation factor XI = Coagulation factor XI (Homo sapiens, UniProt P03951); assay: Inhibition of human factor11a using pyro-Glu-Pro-Arg-pNA(para-nitroaniline) substrate by spectrophotometry
[2] = Half life in cynomolgus monkey liver microsomes; assay type: ADME, Macaca fascicularis, Microsome
[3] = Half life in rat liver microsomes; assay type: ADME, Microsome
[4] = Half life in dog liver microsomes; assay type: ADME, Canis lupus familiaris, Microsome
[5] = Half life in human liver microsomes; assay type: ADME, Microsome
[6] = AUC in Sprague-Dawley rat at 0.6 mg/kg, iv; assay type: ADME, organism-based; conditions: in vivo
[7] = AUC in cynomolgus monkey at 0.5 mg/kg, iv; assay type: ADME, organism-based, Macaca fascicularis; conditions: in vivo
[8] = Clearance in Sprague-Dawley rat at 0.6 mg/kg, iv; assay type: ADME, organism-based; conditions: in vivo
[9] = Oral bioavailability in cynomolgus monkey at 1.5 mg/kg; assay type: ADME, organism-based, Macaca fascicularis; conditions: in vivo
[10] = Terminal half life in Sprague-Dawley rat at 0.6 mg/kg, iv; assay type: ADME, organism-based; conditions: in vivo, read-out: beta t1/2 (converted)
[11] = Apparent volume of distribution at steady-state in Sprague-Dawley rat at 0.6 mg/kg, iv; assay type: ADME, organism-based; conditions: in vivo, read-out: Vdss(app)
[12] = Clearance in cynomolgus monkey at 0.5 mg/kg, iv; assay type: ADME, organism-based, Macaca fascicularis; conditions: in vivo
[13] = Permeability form basolateral to apical side in human Caco2 cells; assay type: ADME, cell-based; conditions: Caco-2, read-out: permeability
[14] = Terminal half life in Beagle dog at 0.4 mg/kg, iv; assay type: ADME, organism-based, Canis lupus familiaris; conditions: in vivo, read-out: beta t1/2 (converted)
[15] = Permeability form apical to basolateral side in human Caco2 cells; assay type: ADME, cell-based; conditions: Caco-2, read-out: permeability
[16] = Oral bioavailability in Sprague-Dawley rat at […]; assay type: ADME, organism-based; conditions: in vivo
[17] = AUC in Beagle dog at 1.1 mg/kg, po; assay type: ADME, organism-based, Canis lupus familiaris; conditions: in vivo
[18] = AUC in Sprague-Dawley rat at […], po; assay type: ADME, organism-based; conditions: in vivo
[19] = Terminal half life in cynomolgus monkey at 0.5 mg/kg, iv; assay type: ADME, organism-based, Macaca fascicularis; conditions: in vivo, read-out: beta t1/2 (converted)
[20] = AUC in cynomolgus monkey at 1.5 mg/kg, po; assay type: ADME, organism-based, Macaca fascicularis; conditions: in vivo
[21] = Apparent volume of distribution at steady-state in Beagle dog at 0.4 mg/kg, iv; assay type: ADME, organism-based, Canis lupus familiaris; conditions: in vivo, read-out: Vdss(app)
[22] = Apparent volume of distribution at steady-state in cynomolgus monkey at 0.5 mg/kg, iv; assay type: ADME, organism-based, Macaca fascicularis; conditions: in vivo, read-out: Vdss(app)
[23] = Oral bioavailability in Beagle dog at 1.1 mg/kg; assay type: ADME, organism-based, Canis lupus familiaris; conditions: in vivo
[24] = AUC in Beagle dog at 0.4 mg/kg, iv; assay type: ADME, organism-based, Canis lupus familiaris; conditions: in vivo
[25] = Clearance in Beagle dog at 0.4 mg/kg, iv; assay type: ADME, organism-based, Canis lupus familiaris; conditions: in vivo
Plasma [26] = assay: Anticoagulant activity in rabbit plasma assessed as activated partial thromboplastin time; assay type: functional, Oryctolagus cuniculus
[27] = Toxicity in New Zealand White rabbit model of cuticle bleeding time assessed as increase in cuticle bleeding time at 4 mg/kg/hr dosed as continuous intravenous infusion 30 to 60 mins prior to cuticle transection relative to control; assay type: organism-based, Oryctolagus cuniculus; conditions: in vivo

Chain of Coagulation factor XI (P03951 19-387 limits assumed): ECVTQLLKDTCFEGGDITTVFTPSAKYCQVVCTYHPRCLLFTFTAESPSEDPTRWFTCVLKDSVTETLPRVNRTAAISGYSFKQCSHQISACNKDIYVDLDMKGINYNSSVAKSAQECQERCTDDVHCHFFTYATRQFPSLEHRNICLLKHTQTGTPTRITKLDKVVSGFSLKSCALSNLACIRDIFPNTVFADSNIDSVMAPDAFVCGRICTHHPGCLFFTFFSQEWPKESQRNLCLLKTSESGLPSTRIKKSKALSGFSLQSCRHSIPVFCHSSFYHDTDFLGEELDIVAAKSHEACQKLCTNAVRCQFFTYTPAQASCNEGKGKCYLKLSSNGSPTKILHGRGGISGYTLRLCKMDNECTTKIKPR
Chain of Coagulation factor XI (P03951 388-625 limits assumed): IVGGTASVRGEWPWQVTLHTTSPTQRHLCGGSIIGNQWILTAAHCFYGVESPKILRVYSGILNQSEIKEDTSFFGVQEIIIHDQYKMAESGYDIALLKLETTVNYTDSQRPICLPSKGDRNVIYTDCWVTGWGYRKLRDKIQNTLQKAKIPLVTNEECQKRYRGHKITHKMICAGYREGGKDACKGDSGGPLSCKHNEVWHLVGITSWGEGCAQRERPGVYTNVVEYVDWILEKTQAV

| Ki (Coagulation factor XI) [nM] | half-life [2] [min] | half-life [3] [min] | half-life [4] [min] | half-life [5] [min] | Compound | EC1.5 (Plasma [1]) [µM] | also measured |
| --- | --- | --- | --- | --- | --- | --- | --- |
| 4.5 | 1 | 9 | 6 | 4 | COC(=O)Nc1ccc2c(c1)NC(=O)[C@H](C)CCC[C@H](N1CCN(c3c(F)ccc(Cl)c3F)CC1=O)c1cc-2ccn1 | 4.6 |  |
| 0.7 | 17 | 48 | 38 | 55 | COC(=O)Nc1ccc2c(c1)NC(=O)[C@H](C)CCC[C@H](N1CC[C@H](c3c(F)ccc(Cl)c3F)OC1=O)c1ncc-2[nH]1 | 0.6 | AUC [6]: 0.52 µM·h; AUC [7]: 0.233 µM·h; clearance [8]: 33 mL/min/kg; bioavailability [9]: 29%; half-life [10]: 84 min; Vd [11]: 3.2 L/kg; clearance [12]: 56 mL/min/kg; Papp B→A [13]: 23.8 ×10⁻⁶ cm/s; half-life [14]: 114 min; Papp A→B [15]: 3.8 ×10⁻⁶ cm/s; bioavailability [16]: 54%; AUC [17]: 0.446 µM·h; AUC [18]: 0.687 µM·h; half-life [19]: 84 min; AUC [20]: 0.263 µM·h; Vd [21]: 5.1 L/kg; Vd [22]: 9.2 L/kg; bioavailability [23]: 57%; AUC [24]: 0.285 µM·h; clearance [25]: 38 mL/min/kg |
| 2.7 |  | 6 | 15 | 9 | COC(=O)Nc1ccc2c(c1)NC(=O)[C@H](C)CCC[C@H](N1CC[C@H](c3c(F)ccc(Cl)c3F)OC1=O)c1cc-2cnc1F | 1.2 |  |
| 1.8 | 2 | 9 | 21 | 17 | COC(=O)Nc1ccc2c(c1)NC(=O)[C@H](C)CCC[C@H](N1CC[C@H](c3c(F)ccc(Cl)c3F)OC1=O)c1cncc-2c1 | 0.6 |  |
| 14 | 80 | 60 | 64 | 76 | COC(=O)Nc1ccc2c(c1)NC(=O)[C@H](C)CCC[C@H](N1CCN(c3c(F)ccc(Cl)c3F)C(=O)C1=O)c1cc-2ccn1 | 4.3 |  |
|  |  |  |  |  | COC(=O)Nc1ccc2c(c1)NC(=O)[C@H](C)CCC[C@H](N1CCC(c3c(F)ccc(Cl)c3F)=CC1=O)c1cc-2ccn1.O=C(O)C(F)(F)F |  | EC1.5 (Plasma [26]): 26 µM |
| 4.9 | 27 | 55 | 72 | 75 | COC(=O)Nc1ccc2c(c1)NC(=O)[C@H](C)CCC[C@H](N1CC(=O)N(c3c(F)ccc(Cl)c3F)CC1=O)c1cc-2ccn1 | 1.4 |  |
|  |  |  |  |  | CC(=O)Oc1ccccc1C(=O)O [ASPIRIN] |  | fold change (FC) [27]: 2.3 |
|  |  |  |  |  | COC(=O)Nc1ccc2c(c1)NC(=O)[C@H](C)CCC[C@H](N1CCC(c3c(F)ccc(Cl)c3F)=CC1=O)c1cc-2ccn1 | 1.8 |  |
| 0.9 | 3 | 15 | 13 | 8 | COC(=O)Nc1ccc2c(c1)NC(=O)[C@H](C)CCC[C@H](N1CCC(c3c(F)ccc(Cl)c3F)CC1=O)c1cc-2ccn1 (mixture of isomers) | 2.8 |  |
| 0.6 | 12 | 35 | 27 | 56 | COC(=O)Nc1ccc2c(c1)NC(=O)[C@H](C)CCC[C@H](N1CC[C@H](c3c(F)ccc(Cl)c3F)OC1=O)c1cc-2ccn1 | 0.5 | clearance [8]: 23 mL/min/kg; bioavailability [16]: 37% |
| 1.6 | 9 | 29 | 44 | 36 | COC(=O)Nc1ccc2c(c1)NC(=O)[C@H](C)CCC[C@H](N1CC[C@H](c3c(F)ccc(Cl)c3F)OC1=O)c1ccnc-2c1 | 0.5 | clearance [8]: 33 mL/min/kg; bioavailability [16]: 48% |
| 0.5 | 2 | 40 | 27 | 17 | COC(=O)Nc1ccc2c(c1)NC(=O)[C@H](C)CCC[C@H](N1CCC(c3c(F)ccc(Cl)c3F)NC1=O)c1cc-2ccn1 (stereo partly specified) | 7.5 |  |

— ChEMBL document CHEMBL4616668, “Discovery of a High Affinity, Orally Bioavailable Macrocyclic FXIa Inhibitor with Antithrombotic Activity in Preclinical Species” (J Med Chem, 2020)
